Laboratory results published in patent US10010547B2 (CASCADIAN THERAPEUTICS, INC., priority 2014, dated 2018).
pIC50: −log10 of the molar value. Counter-ions that a name gives are not always drawn. Like-named read-outs stand apart in the source and are kept apart here.

Legend:
[1] = target: Chk-1 kinase (Homo sapiens (Human), UniProt O14757); test: Chk-1 Kinase Inhibiting Activity (33P-ATP filter assay, CHKtide substrate); type: biochemical; details: against Chk-1 kinase; read-out: IC50
Procedure, shortened: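 Full-length N-terminal GST-tagged human Chk-1 from insect cells, 0.5 nM final, with 20 μM peptide substrate and 33P-ATP in HEPES pH 7.5 buffer with 1% DMSO. Reaction ran 120 minutes at room temperature; incorporated radioactivity captured on P81 filters and counted for IC50.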

[2] = test system: MIA PaCa-2 cells; test: Gemcitabine Combination Cell Assay (Cell Titer Glo); type: cell-based; details: for pIC50: Chk1 inhibitor alone, read-out: Chk1 IC50; for pIC50 / 10xLS / 2xLS: MIA PaCa-2 cells, 72 h; for 10xLS: approximate concentration of Chk1 inhibitor that results in a 10-fold reduction in the IC50 of gemcitabine alone; for 2xLS: approximate concentration of Chk1 inhibitor that results in a two-fold reduction in the IC50 of gemcitabine alone; for IC50: MIA PaCa-2, 72 h, read-out: Chk1 IC50 (nM)
Procedure, shortened: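 MIA PaCa-2 cells were treated 72 h with half-log dilutions of Chk1 inhibitor (top 3000 nM) and gemcitabine (top 100 nM), alone and in full matrix; viability by CellTiter-Glo luminescence. IC50s from four-parameter fit; Chk1 inhibitor concentrations giving two- and ten-fold lowering of gemcitabine IC50 were estimated.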

Chain of Chk-1 kinase (O14757 whole entry): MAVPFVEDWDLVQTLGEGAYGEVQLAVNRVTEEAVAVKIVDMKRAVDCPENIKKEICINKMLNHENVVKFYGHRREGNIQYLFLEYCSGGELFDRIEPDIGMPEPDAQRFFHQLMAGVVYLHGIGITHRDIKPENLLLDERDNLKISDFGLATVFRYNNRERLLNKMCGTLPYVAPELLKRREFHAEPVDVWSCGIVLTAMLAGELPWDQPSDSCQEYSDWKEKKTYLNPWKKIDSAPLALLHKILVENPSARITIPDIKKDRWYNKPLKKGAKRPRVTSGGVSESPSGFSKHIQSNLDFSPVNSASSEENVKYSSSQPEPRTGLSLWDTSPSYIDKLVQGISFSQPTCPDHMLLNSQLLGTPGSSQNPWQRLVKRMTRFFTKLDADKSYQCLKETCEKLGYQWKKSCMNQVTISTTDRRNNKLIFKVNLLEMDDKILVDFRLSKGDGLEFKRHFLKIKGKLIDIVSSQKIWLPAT

pIC50 [1]	pIC50 ([2]; Homo sapiens)	SMILES	10xLS [2]	2xLS [2]	pIC50 [2]	IC50 ([2]; Homo sapiens)
11.28	6.74	CCN1CCC(Nc2ccc(-c3cc(Nc4cnc(C#N)cn4)n[nH]3)c(OC)c2)CC1 [Example 111, 5-[[5-[4-[(1-ethyl-4-piperidyl)amino]-2-methoxy-phenyl]-1H-pyrazol-3-yl]amino]pyrazine-2-carbonitrile]	100 nM	<3 nM		
11.38	6.60	COc1cc(NC2CCN(C(C)C)CC2)ccc1-c1cc(Nc2cnc(C#N)cn2)n[nH]1 [Example 112, 5-[[5-[4-[(1-isopropyl-4-piperidyl)amino]-2-methoxy-phenyl]-1H-pyrazol-3-yl]amino]pyrazine-2-carbonitrile]	100 nM	<3 nM		
10.11	6.68	COc1cc(N2CCNCC2)cc(F)c1-c1cc(Nc2cnc(C#N)cn2)n[nH]1 [Example 116, 5-[[5-(2-fluoro-6-methoxy-4-piperazin-1-yl-phenyl)-1H-pyrazol-3-yl]amino]pyrazine-2-carbonitrile]	100 nM	3 nM		
10.66	5.92	CCN1CCO[C@H](c2ccc(-c3cc(Nc4cnc(C#N)cn4)n[nH]3)c(OC)c2)C1 [Example 118, 5-[[5-[2-methoxy-4-[(2R)-4-ethylmorpholin-2-yl]phenyl]-1H-pyrazol-3-yl]amino]pyrazine-2-carbonitrile]	300 nM	3 nM		
9.82	6.75	COc1cc(N2CCNCC2)cc(OC)c1-c1cc(Nc2cnc(C#N)cn2)n[nH]1 [Example 121, 5-[[5-(2,6-dimethoxy-4-piperazin-1-yl-phenyl)-1H-pyrazol-3-yl]amino]pyrazine-2-carbonitrile]	<100 nM	3 nM		
9.85	6.87	COc1cc(N2CCN(C)CC2)cc(OC)c1-c1cc(Nc2cnc(C#N)cn2)n[nH]1 [Example 122, 5-[[5-[2,6-dimethoxy-4-(4-methylpiperazin-1-yl)phenyl]-1H-pyrazol-3-yl]amino]pyrazine-2-carbonitrile]	<100 nM	3 nM		
10.25	6.68	CCN1CCC[C@@H]1COc1ccc(-c2cc(Nc3cnc(C#N)cn3)n[nH]2)c(OC)c1 [Example 126, 5-[[5-[4-[[(2R)-1-ethylpyrrolidin-2-yl]methoxy]-2-methoxy-phenyl]-1H-pyrazol-3-yl]amino]pyrazine-2-carbonitrile]	<100 nM	3 nM		
10.36	6.77	COc1cc(OC[C@H]2CCCN2C(C)C)ccc1-c1cc(Nc2cnc(C#N)cn2)n[nH]1 [Example 127, 5-[[5-[4-[[(2R)-1-isopropylpyrrolidin-2-yl]methoxy]-2-methoxy-phenyl]-1H-pyrazol-3-yl]amino]pyrazine-2-carbonitrile]	<100 nM	<3 nM		
10.64	6.80	CCN1CCC[C@H]1COc1ccc(-c2cc(Nc3cnc(C#N)cn3)n[nH]2)c(OC)c1 [Example 128, 5-[[5-[4-[[(2S)-1-ethylpyrrolidin-2-yl]methoxy]-2-methoxy-phenyl]-1H-pyrazol-3-yl]amino]pyrazine-2-carbonitrile]	<100 nM	<3 nM		
10.34	6.56	COc1cc(OC[C@@H]2CCCN2C(C)C)ccc1-c1cc(Nc2cnc(C#N)cn2)n[nH]1 [Example 129, 5-[[5-[4-[[(2S)— 1-isopropylpyrrolidin-2-yl]methoxy]-2-methoxy-phenyl]-1H-pyrazol-3-yl]amino]pyrazine-2-carbonitrile]	<100 nM	<3 nM		
10.60	6.85	COc1cc(CNCC2CC2)ccc1-c1cc(Nc2cnc(C#N)cn2)n[nH]1 [Example 130, 5-[[5-[4-[(cyclopropylmethylamino)methyl]-2-methoxy-phenyl]-1H-pyrazol-3-yl]amino]pyrazine-2-carbonitrile]	<100 nM	3 nM		
10.00	6.23	COc1cc(CN[C@@H]2CCOC2)ccc1-c1cc(Nc2cnc(C#N)cn2)n[nH]1 [Example 131, 5-[[5-[2-methoxy-4-[[[(3R)-tetrahydrofuran-3-yl]amino]methyl]phenyl]-1H-pyrazol-3-yl]amino]pyrazine-2-carbonitrile]	100 nM	3 nM		
9.96	6.39	COc1cc(CN[C@H]2CCOC2)ccc1-c1cc(Nc2cnc(C#N)cn2)n[nH]1 [Example 132, 5-[[5-[2-methoxy-4-[[[(3S)-tetrahydrofuran-3-yl]amino]methyl]phenyl]-1H-pyrazol-3-yl]amino]pyrazine-2-carbonitrile]	<300 nM	3 nM		
9.92	6.86	COc1cc(N2CCN(C(C)C)[C@H](C)C2)ccc1-c1cc(Nc2cnc(C#N)cn2)n[nH]1 [Example 133, 5-[[5-[4-[(3R)-4-isopropyl-3-methyl-piperazin-1-yl]-2-methoxy-phenyl]-1H-pyrazol-3-yl]amino]pyrazine-2-carbonitrile]	30 nM	<3 nM		
9.96	6.45	CCN1CCC(Oc2ccc(-c3cc(Nc4cnc(C#N)cn4)n[nH]3)c(OC)c2)CC1 [Example 134, 5-[[5-[4-[(1-ethyl-4-piperidyl)oxy]-2-methoxy-phenyl]-1H-pyrazol-3-yl]amino]pyrazine-2-carbonitrile]	100 nM	3 nM		
10.27	6.48	COc1cc(OC2CCN(C(C)C)CC2)ccc1-c1cc(Nc2cnc(C#N)cn2)n[nH]1 [Example 135, 5-[[5-[4-[(1-isopropyl-4-piperidyl)oxy]-2-methoxy-phenyl]-1H-pyrazol-3-yl]amino]pyrazine-2-carbonitrile]	100 nM	<3 nM		
10.28	6.64	CCN1CCN(c2cc(F)c(-c3cc(Nc4cnc(C#N)cn4)n[nH]3)c(OC)c2)CC1 [Example 136, 5-[[5-[4-(4-ethylpiperazin-1-yl)-2-fluoro-6-methoxy-phenyl]-1H-pyrazol-3-yl]amino]pyrazine-2-carbonitrile]	100 nM	3 nM		
10.32	6.59	COc1cc(N2CCN(C(C)C)CC2)cc(F)c1-c1cc(Nc2cnc(C#N)cn2)n[nH]1 [Example 137, 5-[[5-[4-(4-isopropylpiperazin-1-yl)-2-fluoro-6-methoxy-phenyl]-1H-pyrazol-3-yl]amino]pyrazine-2-carbonitrile]	<100 nM	<3 nM		

SMILES	pIC50 [1]	pIC50 ([2]; Homo sapiens)	10xLS [2]	2xLS [2]	pIC50 [2]	IC50 ([2]; Homo sapiens)
COc1cc(COC2CCN(C)CC2)ccc1-c1cc(Nc2cnc(C#N)cn2)n[nH]1 [Example 113, 5-[[5-[2-methoxy-4-[(1-methyl-4-piperidyl)oxymethyl]phenyl]-1H-pyrazol-3-yl]amino]pyrazine-2-carbonitrile]	9.57		300 nM	3 nM	6.27	
CCN1CCC(OCc2ccc(-c3cc(Nc4cnc(C#N)cn4)n[nH]3)c(OC)c2)CC1 [Example 114, 5-[[5-[4-[(1-ethyl-4-piperidyl)oxymethyl]-2-methoxy-phenyl]-1H-pyrazol-3-yl]amino]pyrazine-2-carbonitrile]	9.70		<300 nM	3 nM	6.33	
COc1cc(COC2CCN(C(C)C)CC2)ccc1-c1cc(Nc2cnc(C#N)cn2)n[nH]1 [Example 115, 5-[[5-[4-[(1-isopropyl-4-piperidyl)oxymethyl]-2-methoxy-phenyl]-1H-pyrazol-3-yl]amino]pyrazine-2-carbonitrile]	9.62		<300 nM	3 nM	6.29	
COc1cc([C@@H]2CN(C)CCO2)ccc1-c1cc(Nc2cnc(C#N)cn2)n[nH]1 [Example 117, 5-[[5-[2-Methoxy-4-[(2R)-4-methylmorpholin-2-yl]phenyl]-1H-pyrazol-3-yl]amino]pyrazine-2-carbonitrile hydrochloride]	10.57		1000 nM	10 nM		1890 nM
COc1cc(CN2CC[C@@H](F)C2)ccc1-c1cc(Nc2cnc(C#N)cn2)n[nH]1 [Example 123, 5-[[5-[4-[[(3R)-3-fluoropyrrolidin-1-yl]methyl]-2-methoxy-phenyl]-1H-pyrazol-3-yl]amino]pyrazine-2-carbonitrile hydrochloride]	9.80		<300 nM	3 nM		440 nM
CCN1CC[C@H](OCc2ccc(-c3cc(Nc4cnc(C#N)cn4)n[nH]3)c(OC)c2)C1 [Example 138, 5-[[5-[4-[[(3S)-1-ethylpyrrolidin-3-yl]oxymethyl]-2-methoxy-phenyl]-1H-pyrazol-3-yl]amino]pyrazine-2-carbonitrile]	10.39	6.08	300 nM	<10 nM		
